Each structure is given as a SMILES string.

The nature of the test: Inhibition of IL-5 in mouse Y16 cells assessed as reduction in cell proliferation after 48 hrs by WST-1 assay.
As for `CCCC(=O)N(CCO)Cc1coc2cccc(OCC3CCCCC3)c2c1=O`, the IC50 turned out to be 25.3 µM.
In the case of `COc1ccc(CC(=O)N(CCO)Cc2coc3cccc(OCC4CCCCC4)c3c2=O)cc1`, the IC50 stood at 17.9 µM.
As for `CC(C)(C)CCOc1cccc2occ(CN(CCO)C(=O)Cc3ccccc3)c(=O)c12`, the IC50 was greater than 30 µM.
Turning to `CC(C)CCOc1cccc2occ(CN(CCO)C(=O)Cc3ccccc3)c(=O)c12`, the IC50 was greater than 30 µM.
In the case of `O=c1c(-c2ccc(O[C@H]3O[C@@H](CO)[C@H](O)[C@@H](O)[C@@H]3O)cc2)coc2cc(O)cc(O)c12`, the IC50 was determined as 10.6 µM.
Consider `O=C(Cc1ccccc1)N(CCO)Cc1coc2cccc(OCC3CCCCC3)c2c1=O`, for which the IC50 was 10 µM.
As for `CCCNC(=O)N(CCO)Cc1coc2cccc(OCC3CCCCC3)c2c1=O`, the IC50 is greater than 30 µM.
The result for `CC(C)NC(=O)N(CCO)Cc1coc2cccc(OCC3CCCCC3)c2c1=O` reads greater than 30 µM; that for `O=C(Nc1ccccc1)N(CCO)Cc1coc2cccc(OCC3CCCCC3)c2c1=O`, 17 µM.
To `O=C(NC1CCCCC1)N(CCO)Cc1coc2cccc(OCC3CCCCC3)c2c1=O` belongs 17 µM; to `O=C(Nc1ccc(Cl)cc1)N(CCO)Cc1coc2cccc(OCC3CCCCC3)c2c1=O`, greater than 30 µM; to `COc1ccc(NC(=O)N(CCO)Cc2coc3cccc(OCC4CCCCC4)c3c2=O)cc1`, 18 µM.
`O=C(NCc1ccccc1)N(CCO)Cc1coc2cccc(OCC3CCCCC3)c2c1=O`: the IC50 turned out to be 18 µM.
For the compound `O=C(NCCCc1ccccc1)N(CCO)Cc1coc2cccc(OCC3CCCCC3)c2c1=O`, the IC50 was found to be 15 µM.
The result for `CC(C)(C)CCOc1cccc2occ(CN(CCO)C(=O)Nc3ccccc3)c(=O)c12` reads greater than 30 µM; that for `CC(C)CCOc1cccc2occ(CN(CCO)C(=O)Nc3ccccc3)c(=O)c12`, greater than 30 µM.
For `CCOC(=O)N(CCO)Cc1coc2cccc(OCC3CCCCC3)c2c1=O`, the IC50 stood at 20.2 µM.
To `O=C(Oc1ccccc1)N(CCO)Cc1coc2cccc(OCC3CCCCC3)c2c1=O` belongs 25 µM; to `CC(C)(C)CCOc1cccc2occ(CN(CCO)C(=O)Oc3ccccc3)c(=O)c12`, greater than 30 µM.
The result for `CC(C)CCOc1cccc2occ(CN(CCO)C(=O)Oc3ccccc3)c(=O)c12` reads greater than 30 µM; that for `CCC(=O)N(CCO)Cc1coc2cccc(OCC3CCCCC3)c2c1=O`, 25.2 µM.
For `CCNC(=O)N(CCO)Cc1coc2cccc(OCC3CCCCC3)c2c1=O`, the IC50 was greater than 30 µM.

The values above are taken from BindingDB's records for doi:10.1016/j.bmc.2017.06.018 (Chungnam National University, 2017).
